Test results as given in PMC9737648, “Novel Approaches for the Solid-Phase Synthesis of Dihydroquinazoline-2(1H)-One Derivatives and Biological Evaluation as Potential Anticancer Agents” (Molecules, 2022).

Experiments:
[1] = tested on: breast cancer cells (MDA-MB-231); assay: MTT cytotoxicity assay, MDA-MB-231; type: cell-based, human; settings: Homo sapiens, 72-h incubation
Protocol: (§1) The above cells were tested for cytotoxicity to identify the most promising antitumor drug among the synthesized quinazolinone derivatives.
(§2) An MTT assay was used to evaluate the in vitro cytotoxicity of the new compounds. The MTT assay depends on the reduction of soluble 3-([…])-2,5-diphenyl-tetrazolium bromide (MTT) into a blue purple formazan product, mainly by mitochondrial reductase activity inside living cells. […] The cells were suspended in growth medium and plated in 96-well culture plates at a density of 4 × 10^4 cells/well and incubated at 37 °C in a 5% CO2 incubator. […] Each experiment was performed at least 3 times.

[2] = tested on: human liver cancer cells (HepG-2); assay: MTT cytotoxicity assay, HepG-2; type: cell-based; settings: Homo sapiens, HepG2, 72 h, 72-h incubation
Protocol: as §1, §2

[3] = tested on: human hepatic stellate cells (LX-2); assay: MTT cytotoxicity assay, LX-2 normal control; type: cell-based; settings: Homo sapiens, 72-h incubation
Protocol: as §1, §2

[4] = DPPH• free radical scavenging assay; settings: concentration required to scavenge 50% of the DPPH; 30 min in the dark
Protocol: The quinazolinone derivatives were evaluated for their free radical scavenging activity at 320, 160, 80, 40, 20, and 10 µM concentration using the DPPH radical method, with ascorbic acid as the positive control (Table 3).
The antiradical activity of the compounds was estimated according to a slight modification of the procedure reported by Morales and Jimenez-Perez. […] Each sample (100 μL) at a different concentration was added to a freshly prepared solution of 1,1-diphenyl-2-picrylhydrazyl (DPPH•) radical (0.2 mM, 100 μL). The mixtures (200 μL) were placed in a 96-well microplate, shaken vigorously, and then left to stand for 30 min in the dark. Then, absorbance was immediately measured at a wavelength of 517 nm. Vc was used as the standard. The antiradical activity for each compound was determined in the Vc equivalent antioxidant capacity. The DPPH• solution in the presence of ethanol and in the absence of compounds was tested and used as a negative control. […] In all experiments, the samples were analyzed in triplicate, and activity for each compound was presented as the mean value ± SEM and used for evaluation of structure–activity relationships. […] Absorbance was taken at 520 nm using a microplate reader (Tecan, Männedorf, Switzerland).

[5] = tested on: ovarian cancer cells (A2780); assay: MTT cytotoxicity assay, A2780; type: cell-based, human; settings: Homo sapiens, A2780, 72 h, 72-h incubation
Protocol: as §1, §2

IC50 [4]: > 1000 µM
SMILES: COc1ccccc1S(=O)(=O)Nc1ccc2c(c1)C(CC(=O)NC(CO)C(N)=O)NC(=O)N2CCCN (centres unmarked) [CA1-j, 3-{4-{2-[(1-amino-3-hydroxy-1-oxopropan-2-yl)amino]-2-oxoethyl}-6-[(2-methoxyphenyl)sulfonamido]-2-oxo-3,4-dihydroquinazolin-1(2H)-yl}propan-1-aminium 2,2,2-trifluoroacetate]
IC50 [1]: 76.3 ± 2.05 µM
IC50 [2]: 73.8 ± 1.03 µM
IC50 [3]: > 100 µM
IC50 [5]: 83.6 ± 1.24 µM
